In one experiment the test system is HCT116 tumour spheroids. Put plainly: Spheroid + radiation colony forming cell survival assay (SF), HCT116. Conditions: Homo sapiens, HCT-116, 8 Gy. It counts as cell-based. How it is done: (§1) Multicellular tumour spheroids determination of compound inhibition of pDNA-PK induction following radiation. Tumour spheroids were grown to approximately 0.5 mm in diameter and irradiated with 20 Gy in combination with inhibitor test compounds to determine their potency. Inhibitor concentration for 50% reduction in pDNA-PK induction (IC50) was determined via immunohistochemical staining in spheroid cryosections taken 2 hours following radiation. For cell survival endpoint 8 Gy radiation was used and 3 hours following radiation spheroids were dissociated, counted and plated for colony forming endpoint.
Spheroid+radiation colony forming cell survival assay (SF). Radiation 8 Gy. Drug: serial dilution 5 μM down to 10 nM (12 wells×2 repeat). Spheroids: 5-10 spheroids per well (300 to 500 μm diameter). HCT116. 5% 02 and 5% CO2. 96 well pate format for assay. Protocol: pre incubate 1 hour with drug, irradiate 8 Gy, post incubate 3 hrs with drug, dissociate spheroids and count cells and plate for colony forming assay. Endpoint: wait 4-7 days and count colonies. Analysis: determine EC50 concentration that increase cell kill by 50% over radiation alone.
(§2) Multicellular tumour spheroids were used to determine potency of test compounds in a 3D tissue environment using inhibition of pDNA-PK induction following radiation or cell survival as the endpoint. For the pDNA-PK endpoint HCT116 or FaDU tumour spheroids were grown to approximately 0.5 mm in diameter and irradiated with 20 Gy in combination with inhibitor test compounds to determine their potency. Experiments were carried out in 96 well plates containing 0.7 mls of MEM media containing 10% FBS and 10 mM glucose under 20% O2 & 5% CO2 at 37° C. Following dilution of compounds 1:1000 from DMSO stocks, compounds were serially diluted from 10 μM down to 3.5 nM and 5-10 spheroids added. 96 well plates were constantly stirred to avoid spheroids settling during the course of the experiment. The inhibitor concentration for 50% reduction in pDNA-PK induction (EC50) was determined via immunohistochemical staining in spheroid cryosections taken 2 hours following radiation using anti-pDNA-PK (ser 2056) and fixed immediately in formalin following sectioning. For cell survival endpoint 8 Gy radiation was used and, 3 hours following radiation, spheroids were dissociated, counted and plated for colony forming endpoint. Data presented in the table compound potency as EC50 [μM].

Experiment [1] relates to pDNA-PK induction in FaDU tumour spheroids. Put plainly: Multicellular tumour spheroid + radiation, pDNA-PK (ser2056) inhibition, immunohistochemical endpoint, FaDU. Format: cell-based. The settings on record: Homo sapiens, 20 Gy. How it is done: as §1
Spheroid+radiation pDNA-PK. Radiation: 20 Gy. Drug: serial dilution 5 or 10 μM down to 3.5 nM (11 wells). Spheroids: 3-6 spheroids per well (300-500 μm diameter). 20% 02 and 5% CO2. 96 well plate format. Endpoint: fluorescent immunostain pDNA-PK ser2056 and image on microscope. Analysis: determine EC50 concentrations that decreases pDNA-PK induction by 50% after irradiation.
as §2

Setting [2] is: plated 3 hours following radiation, Example 9 Study 2, read-out: Spheroid Cell line: HCT116 Colony forming endpoint Surviving Fraction EC50.
Where [3] appears, read: spheroids, 5% O2, concentration that increases cell kill by 50% over radiation alone, Example 8, read-out: Cell line: HCT116 Colony forming endpoint Surviving Fraction EC50.
The mark [4] stands for this setting: 2 hours following radiation, 20% O2, Example 9 Study 2, read-out: Spheroid Cell line: FaDU Immunohistochemical endpoint pDNA-PK inhibition EC50.
Where [5] appears, read: 2 h, spheroids, 20% O2, Example 8, read-out: Cell line: FaDU Immunohistochemical endpoint pDNA-PK inhibition EC50.

Experimental findings from US20240239790A1, “7-Morpholino-1,6-Naphthyridin-5-yl Derivatives and Pharmaceutical Compositions Thereof Useful as DNA-PK Inhibitor” (adMare Therapeutics Society, priority 2021, published 2024) are described below.

pEC50: −log10 of the molar value. Like-named read-outs stand apart in the source and are kept apart here.

As a reminder, the pEC50 is the EC50 on a negative log10 scale, so that one unit is a factor of ten. With `CN(C)C(=O)COc1cnc(N[C@H]2CC[C@@H](Oc3nc(N4CCOCC4)cc4ncccc34)CC2)nc1` [Compound 54, N,N-Dimethyl-2-((2-(((1s,4s)-4-((7-morpholino-1,6-naphthyridin-5-yl)oxy)cyclohexyl)amino)pyrimidin-5-yl)oxy)acetamide], the pEC50 (in the experiment with HCT116 tumour spheroids (setting [2]); with HCT116 tumour spheroids (setting [3]); in experiment [1] (setting [4]); in experiment [1] (setting [5])) was 6.30 to 8.00 in each case.
With `CN(C)CCOc1cnc(N[C@H]2CC[C@@H](Oc3nc(N4CCOCC4)cc4ncccc34)CC2)nc1` [Compound 64, 5-(2-(Dimethylamino)ethoxy)-N-((1s,4s)-4-((7-morpholino-1,6-naphthyridin-5-yl)oxy)cyclohexyl)pyrimidin-2-amine], the pEC50 (with HCT116 tumour spheroids (setting [2]); in the experiment on HCT116 tumour spheroids (setting [3]); in experiment [1] (setting [4]); in experiment [1] (setting [5])) was 6.30 to 8.00 throughout.
Turning to `O=C(O)c1cnc2cc(N3CCOCC3)nc(O[C@H]3CC[C@@H](n4ccnc4)CC3)c2c1` [Compound 165, 5-(((1s,4s)-4-(1H-imidazol-1-yl)cyclohexyl)oxy)-7-morpholino-1,6-naphthyridine-3-carboxylic acid], the pEC50 with HCT116 tumour spheroids (setting [2]) and with HCT116 tumour spheroids (setting [3]) was 4.00 to 5.00 in each case.
For `O=C(NO)c1cnc2cc(N3CCOCC3)nc(O[C@H]3CC[C@@H](n4ccnc4)CC3)c2c1` [Compound 172, 5-(((1s,4s)-4-(1H-imidazol-1-yl)cyclohexyl)oxy)-N-hydroxy-7-morpholino-1,6-naphthyridine-3-carboxamide], the pEC50 in experiment [1] (setting [4]) and in experiment [1] (setting [5]) was 5.00 to 6.00 in each case.
`CS(=O)(=O)NC(=O)c1cnc2cc(N3CCOCC3)nc(O[C@H]3CC[C@@H](n4ccnc4)CC3)c2c1` [Compound 175, 5-(((1s,4s)-4-(1H-imidazol-1-yl)cyclohexyl)oxy)-N-(methylsulfonyl)-7-morpholino-1,6-naphthyridine-3-carboxamide]: the pEC50 in the experiment on HCT116 tumour spheroids (setting [2]) and in the experiment with HCT116 tumour spheroids (setting [3]) was 4.00 to 5.00 throughout.
